{"source": "paper PMC4882237", "about": "(Journal of medicinal chemistry, 2016)", "key": {"[1]": {"experiment": "Metabolic stability in human liver microsomes", "assay_type": "in vitro ADME"}, "cytochromes P450 (CYPs)": {"test_system": "cytochromes P450 (CYPs)", "experiment": "Inhibition of human cytochromes P450, overall", "conditions": "result in words"}, "Caco-2": {"test_system": "Caco-2", "experiment": "Caco-2 permeability", "assay_type": "in vitro ADME", "conditions": "result in words"}}, "note": "“Also recorded” adds a separate entry of the source."}
{"smiles": "CNCCCc1cncc(CCc2cc(C)cc(N)n2)c1", "note": "[Compound 14j, 4-Methyl-6-(2-(5-(3-(methylamino)propyl)pyridin-3-yl)ethyl)pyridin-2-amine]", "values": [{"measurement": "half-life in human liver microsomes", "setting": "[1]; 1 μM concentration", "value": "> 1", "unit": "h"}, {"measurement": "human microsome CYP metabolism", "setting": "[1]; for at least 60 min, result in words", "value": "little or no"}, {"measurement": "metabolic stability in human liver microsomes", "setting": "[1]; result in words", "value": "good"}, {"measurement": "binding to / inhibition of cytochromes P450 (CYPs)", "setting": "cytochromes P450 (CYPs)", "value": "minimal; also recorded: very poor"}, {"measurement": "Caco-2 permeability", "setting": "Caco-2", "value": "little to no; also recorded: little or no"}]}
